Measurements published in patent US9700578B2, “Use of nitrite salts for the treatment of cardiovascular conditions” (The United States of America as represented by the …, priority 2003, dated 2017).
Several values for one entry are separate records, joined by “and”; a condition that tells them apart may be missing. Equal entries are not always repeated. Where two headings read alike, the source gives them in different places.

Experiments:
[1] = tested on: hepatic ischemia-reperfusion injury; test: Hepatic ischemia-reperfusion (I/R) injury; type: in vivo, mice
Experimental: Carboxy-PTIO [2-(4-Carboxyphenyl)-4,4,5,5-tetramethylimidazoline-1-oxyl-3-oxide potassium salt], a direct intravascular NO scavenger, was utilized to inhibit NO dependent effects following hepatic I/R injury. Carboxy-PTIO (Alexis Biochemicals) was dissolved in phosphate buffered saline and administered intravenously at a dose of 1 mg/Kg in a volume of 50 μL at 30 minutes prior to hepatic ischemia Zinc(II) Deuteroporphyrin IX-2,4-bisethyleneglycol (ZnDBG) (Alexis Biochemicals), a heme oxygenase-1 inhibitor was injected i.p. at a dose of 10 mg/Kg in a volume of 50 μL at 30 minutes prior to the induction of hepatic ischemia.
All of the mice utilized in the present studies were C57BL6/J at 8-10 weeks of age obtained from the Jackson Laboratories (Bar Harbor, Me.). In additional experiments of hepatic I/R injury we utilized mice completely deficient (−/−) in endothelial nitric oxide synthase (eNOS). eNOS−/− mice were originally generously donated from Dr. Paul Huang (Mass. General Hospital) and generated in our breeding colony at LSU-Health Sciences Center. eNOS−/− mice were utilized at 8-10 weeks of age.
The hepatic I/R protocol is depicted in FIG. 6A and has been described previously (Hines et al., Biochem Biophys Res Commun 284:972-976, 2001; Hines et al., Am J Physiol Gastrointest Liver Physiol 284:G536-545, 2001). Mice were anesthetized with the combination of ketamine (100 mg/kg) and zylazine (8 mg/kg) and a midline laparotomy was performed to expose the liver. Mice were then injected with heparin (100 μg/kg, i.p.) to prevent blood clotting. The left lateral and median lobes of the liver were rendered ischemic by completely clamping the hepatic artery and the portal vein using microaneurysm clamps. This experimental model results in a segmental (70%) hepatic ischemia. This method of partial ischemia prevents mesenteric venous congestion by allowing portal decompression throughout the right and caudate lobes of the liver. The liver was then repositioned in the peritoneal cavity in its original location for 45 minutes. The liver was kept moist using gauze soaked in 0.9% normal saline. In addition, body temperature was maintained at 37° C. using a heat lamp and monitoring body temperature with a rectal temperature probe. Sham surgeries were identical except that hepatic blood flow was not reduced with a microaneurysm clamp. The duration of hepatic ischemia was 45 minutes in all experiments, following which the microaneurysm clamps were removed. The duration of hepatic reperfusion was 5 hours in the studies of serum liver transaminase levels (i.e., AST or ALT) and 24 hours for the studies of liver histopathology (such as hepatocellular infarction).
Serum samples were analyzed for aspartate aminotransferase (AST) and alanine aminotransferase (ALT) using a spectrophotometric method (Sigma Chemical Co., St. Louis, Mo.) (Harada et al., Proc Natl Acad Sci USA 100:739-744, 2003). These enzymes are liver specific and are released from the liver during injury (Hines et al., Biochem Biophys Res Commun 284:972-976, 2001; Hines et al., Am J Physiol Gastrointest Liver Physiol 284:G536-545, 2001). […]

[2] = tested on: U46619-induced normoxic pulmonary hypertension; type: in vivo; details: normoxic, U46619 infusion, nebulized nitrite, n=6
[3] = tested on: hypoxic-induced pulmonary hypertension; test: Comparison of inhaled nitrite and NO gas during hypoxic-induced pulmonary vasoconstriction: efficacy and duration; type: in vivo, newborn lambs; details: for reduction (correction) of hypoxic-induced pulmonary hypertension: hypoxia, NO gas 20 ppm or nitrite aerosol for 20 minutes
From the text: NO gas was introduced into the inspiratory limb of the breathing circuit. The inspired concentration of NO was continuously measured by chemiluminescence (CLD 700 AL, Eco Physics Inc, Ann Arbor, Mich.) in the inspiratory limb of the ventilator loop.
efficacy and duration of effect. This protocol was designed to compare the efficacy of nitrite with the clinical standard, 20 ppm inhaled NO gas. […] A second purpose was to determine the duration of effect of a short nitrite nebulization versus NO gas inhalation on hemodynamic and physiological measurements during prolonged hypoxic-induced pulmonary vasoconstriction. After baseline measurements were performed, the lambs were made hypoxic as described above for 35 minutes. Ten minutes after initiation of hypoxia, a 20-minute period of NO gas inhalation was initiated (20 ppm), with continuation of hypoxia for 5 minutes after cessation of NO gas delivery. Lambs were then allowed to recover for one hour. Again, after baseline measurements were made, a second 90-minute period of hypoxia was initiated.

hemoglobin = hemoglobin (Homo sapiens, UniProt P68871+P69905)
[4] = tested on: deoxygenated erythrocytes
[5] = tested on: hypoxic-induced pulmonary hypertension; details: for decrease in pulmonary artery pressure from hypoxic level: FiO2 0.12, nebulized 270 μmol/minute for 20 minutes, n=7
forearm circulation = details: concentrations of 200 μM in the forearm, Lauer et al.; cited from earlier work
[6] = 200 μM regional concentration, transit time less than 10 seconds

SMILES: O=NO [sodium nitrite]
- calculated blood level at which a protective effect was observed ([1]; 1.2 nmoles added nitrite): 600 nM
- calculated systemic concentration of peak effect on AST and ALT ([1]; 48 nmoles added nitrite, 2 mL blood volume): 24 µM
- hepatocellular injury (histopathology) at 24 hours of reperfusion ([1]; 24 μM (48 nmoles), versus saline and nitrate treated animals): significantly reduced
- hepatocellular apoptosis (TUNEL) ([1]; 45 minutes ischemia, 24 hours reperfusion): significantly (p<0.001) attenuated
- tissue injury in mice pre-treated with ZnDPBG (serum AST) ([1]; heme oxygenase 1 inhibitor pre-treatment, nitrite 24 μM): significantly limited tissue injury
- near-physiological nitrite concentration with highly significant protective effects ([1]; hepatic I/R): 0.6 μM
- serum elevations of liver transaminases AST and ALT ([1]; intraperitoneal during hepatic ischemia, 45 min ischemia, 5 h reperfusion, nitrite 1.2-480 nmoles, nitrate 48 nmoles): dose-dependently limited
- cytoprotection in eNOS deficient mice (serum AST) ([1]; mouse, in vivo): significant nitrite cytoprotection
- decrease in pulmonary artery pressure from infusion baseline [2]: 23±6%
- methemoglobin concentration after nitrite nebulization ([3]; baseline 2.1±0.1): 2.8±0.2%
- duration of sustained vasodilation after discontinuation of inhalation ([3]; hypoxia continued 60 minutes after nebulization): more than 60 minutes
- reduction (correction) of hypoxic-induced pulmonary hypertension [3]: about 60%
- reduction (correction) of hypoxic-induced pulmonary hypertension ([3]; listed as nitrite): 60-70%
- iron-nitrosylated-hemoglobin in the ipsilateral antecubital vein during nitrite infusion (hemoglobin; 36 μmol/min, at rest, baseline 55.7±11.4): 693.4 ± 216.9 nM
- SNO-Hb produced across the forearm during exercise (hemoglobin; [6]): ~200 nM
- iron-nitrosyl-hemoglobin produced across the forearm during exercise (hemoglobin; [6]): approximately 750 nM
- NO release on addition to oxygenated erythrocytes ([4]; 21% and 100% oxygen, versus deoxygenated erythrocytes): significantly less NO
- rate of NO production in the 5 mL reaction volume ([4]; 100 and 200 μM nitrite, deoxygenated erythrocytes 660 and 1000 μM in heme, helium purged): 47 pM per second
- NO release into the gas phase in buffer control ([4]; PBS, same conditions): no release
- decrease in pulmonary artery pressure from hypoxic level [5]: ~60%
- decrease in pulmonary artery pressure from hypoxic level ([5]; listed as nitrite): ~60% and 63+/−3%
- cardiac output, arterial oxyhemoglobin saturation and methemoglobin levels ([5]; versus preceding ten minutes of hypoxia): did not change measurably
- vasodilatory effect in human forearm (forearm circulation): no vasodilatory effects
